Measured values from patent publication US11396516B2, “Tricyclic compounds as Cyp1 inhibitors” (The General Hospital Corporation, priority 2017, dated 2022).
Entries after “also recorded” stand apart in the source; their conditions may differ. Marks after values point to notes of the source that are not given here.

Experiments:
[1] = tested on: zebrafish embryos treated with DOX (cardiomyopathy phenotype); test: Zebrafish doxorubicin cardiomyopathy model (rescue from phenotype); type: in vivo; conditions: visnagin 20 μM plus AHR agonist
LOC100332237 = test: Zebrafish proteomics; type: in vivo; conditions: zebrafish embryos, 40 hours post-treatment; visnagin 20 μM
dhrs13l1 = test: Zebrafish proteomics; type: in vivo; conditions: zebrafish embryos, 40 hours post-treatment; visnagin 20 μM
CYP1 enzymes = test: Zebrafish CYP1 enzyme levels after DOX treatment; conditions: for levels of CYP1 enzymes after doxorubicin treatment: doxorubicin alone
cyp1c1 = test: Zebrafish proteomics; type: in vivo; conditions: zebrafish embryos, 40 hours post-treatment; visnagin 20 μM
Description: (§1) The proteomics analysis was carried out as described in the material and methods section. All protein abundance values are normalized to DMSO-treated control zebrafish. * p<0.05 compared to the DMSO control using the Benjamini-Hochberg method of correcting for multiple hypotheses.

CYP1A [2] = test: Zebrafish proteomics; type: in vivo; conditions: zebrafish embryos, 40 hours post-treatment; visnagin 20 μM
Description: as §1

cyp1b1 = test: Zebrafish proteomics; type: in vivo; conditions: zebrafish embryos, 40 hours post-treatment; visnagin 20 μM
Description: as §1

[3] = tested on: DOX-induced cardiac apoptosis in C57/B16 mice; test: Mouse annexin model of acute DOX-induced cardiotoxicity (Anx-750 imaging); type: in vivo
Description: DOX fluorescence imaging was carried out on IVIS spectrum with the filter setting 500 nm excitation/600 nm emission, 30 second exposure, with 135 μm in-plane resolution. A series of DOX phantoms, ranging from 0 to 0.03 mM was prepared in saline, and imaged on the IVIS spectrum with identical settings. Anx-750 fluorescence was detected with the filter setting 745 nm excitation/800 nm emission, 30 second exposure, and 135 μm resolution.
Annexin and DOX fluorescence signal was quantified and analyzed in ImageJ (National Institute of Health). For each heart, fluorescence intensity was averaged across 4-6 slices. Annexin uptake was normalized to the saline injected control animals. DOX fluorescence in the heart was quantified by calculating the signal-to-noise ratio (SNR=mean fluorescence intensityheart/standard deviationair). A threshold of two standard deviations above the saline injected control animals was applied to all DOX injected animals, with or without therapeutics. Only animals that met the threshold (thus DOX positive hearts) were included in the analysis. All statistical analysis was performed in Prism (Graphpad).
Doxorubicin was dissolved in 0.9% normal saline and administered at a dose of 15 mg/kg to adult C57/B16 mice via i.p. injection. For the treatment arm, compound of example 2 was dissolved in 10% DMSO and 90% olive oil (carrier) or carrier alone was administered via intraperitoneal injection on the contralateral side.
Twenty-two hours after DOX and treatment injections, Anx-750 (Annexin Vivo 750, Perkin Elmer) was injected intravenously according to manufacturer's instructions. After 2 hours of probe circulation, hearts were excised, sectioned into 1-mm slices along the short axis, and imaged on a commercial imaging system (IVIS spectrum, Perkin Elmer) to assess apoptosis as previously described (Chen et al., 2011).
DOX uptake in the heart was assessed by reflectance fluorescence imaging, and the resultant apoptosis was simultaneously imaged with Anx-750, a near-infrared fluorescent Annexin V probe (Annexin-Vivo 750 is an Annexin V conjugate with a near-infrared fluorochrome, see Chen et al., 2011). […] Referring to FIGS. 1A-1D, * p<0.05, ** p<0.01, and *** p<0.001, ANOVA. Carrier=10% DMSO+90% olive oil.

thbs1b = test: Zebrafish proteomics; type: in vivo; conditions: zebrafish embryos, 40 hours post-treatment; visnagin 20 μM
sqstm1 = test: Zebrafish proteomics; type: in vivo; conditions: zebrafish embryos, 40 hours post-treatment; visnagin 20 μM
[4] = tested on: myosin heavy chain B (MYHB); test: Zebrafish proteomics; type: in vivo
Description: (§2) Expression levels of 6085 proteins were measured in zebrafish treated with doxorubicin with or without visnagin. […] This is in contrast to other proteins that were modulated to a similar extent in fish treated with doxorubicin but were not reversed by co-treatment with visnagin. For instance, levels of myosin heavy chain B (MYHB) were decreased in fish treated with DOX alone and in fish treated with DOX+visnagin. Downregulation of MYHB has been previously described with DOX treatment (Ito H, PNAS 1990). Likewise, the inflammatory marker C-reactive protein 3 (CRP3) was increased in both DOX and DOX+visnagin-treated fish.

[5] = tested on: C-reactive protein 3 (CRP3); test: Zebrafish proteomics; type: in vivo
Description: as §2

[6] = patients treated with DOX; cited from earlier work
gstp2 = test: Zebrafish proteomics; type: in vivo; conditions: zebrafish embryos, 40 hours post-treatment; visnagin 20 μM
rad9a = test: Zebrafish proteomics; type: in vivo; conditions: zebrafish embryos, 40 hours post-treatment; visnagin 20 μM
slc2a1a = test: Zebrafish proteomics; type: in vivo; conditions: zebrafish embryos, 40 hours post-treatment; visnagin 20 μM
CYP1A [7] = test: Zebrafish CYP1A Western blot; type: in vivo; conditions: co-treatment with DOX, 10 μM
Description: Assessing RNA and protein levels was performed using quantitative PCR (FIG. 2A) and Western blot with a zebrafish-specific antibody against CYP1A (FIG. 2B). […] This effect was seen as early as 18 hours post-treatment, prior to the development of the cardiomyopathy phenotype at 42 hours post-treatment.

CYP2C8 = CYP2C8 (Homo sapiens (Human), UniProt P10632); test: CYP inhibition assay, human liver microsomes; type: biochemical; conditions: paclitaxel 10 μM, reference montelukast
Chain of CYP2C8 (P10632 whole entry): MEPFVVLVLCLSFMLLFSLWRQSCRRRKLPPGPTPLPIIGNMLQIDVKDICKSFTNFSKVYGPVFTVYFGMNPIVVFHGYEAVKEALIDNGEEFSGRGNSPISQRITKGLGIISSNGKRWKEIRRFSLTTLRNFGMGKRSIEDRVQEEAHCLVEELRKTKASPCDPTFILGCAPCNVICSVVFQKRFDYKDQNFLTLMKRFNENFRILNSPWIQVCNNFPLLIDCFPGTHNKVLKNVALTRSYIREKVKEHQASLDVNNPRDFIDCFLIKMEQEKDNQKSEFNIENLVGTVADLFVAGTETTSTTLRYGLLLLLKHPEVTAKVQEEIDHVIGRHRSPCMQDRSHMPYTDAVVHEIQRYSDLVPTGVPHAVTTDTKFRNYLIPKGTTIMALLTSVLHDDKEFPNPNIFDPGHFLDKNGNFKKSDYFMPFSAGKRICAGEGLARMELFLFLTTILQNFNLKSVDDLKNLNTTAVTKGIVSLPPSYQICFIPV
Description: (§3) CYP inhibition experiments were performed by Cerep Panlabs (Eurofins) using human liver microsomes and the following substrates: phenacetin 10 μM (CYP1A), buproprion 100 μM (CYP2B6), paclitaxel 10 μM (CYP2C8), diclofenac 10 μM (CYP 2C9), omeprazole 0.5 μM (CYP2C19), dextromethorphan 5 μM (CYP2D6), and testosterone 50 μM (CYP3A). Metabolites of each substrate were measured using LC-MS/MS. Mean percent inhibition was calculated using the following reference inhibitors: furafylline (CYP1A), clopidogrel (CYP2B6), montelukast (CYP2C8), sulfaphenazole (CYP2C9), oxybutynin (CYP2C19), quinidine (CYP2D6), and ketoconazole (CYP3A). […] All concentrations were tested in duplicate to obtain the final results.
(§4) The ability of the tested compounds to inhibit a panel of CYP enzymes in vitro was assessed using a series of human liver microsome assays.

CYP2B6 = CYP2B6 (Homo sapiens (Human), UniProt P20813); test: CYP inhibition assay, human liver microsomes; type: biochemical; conditions: buproprion 100 μM
Chain of CYP2B6 (P20813 whole entry): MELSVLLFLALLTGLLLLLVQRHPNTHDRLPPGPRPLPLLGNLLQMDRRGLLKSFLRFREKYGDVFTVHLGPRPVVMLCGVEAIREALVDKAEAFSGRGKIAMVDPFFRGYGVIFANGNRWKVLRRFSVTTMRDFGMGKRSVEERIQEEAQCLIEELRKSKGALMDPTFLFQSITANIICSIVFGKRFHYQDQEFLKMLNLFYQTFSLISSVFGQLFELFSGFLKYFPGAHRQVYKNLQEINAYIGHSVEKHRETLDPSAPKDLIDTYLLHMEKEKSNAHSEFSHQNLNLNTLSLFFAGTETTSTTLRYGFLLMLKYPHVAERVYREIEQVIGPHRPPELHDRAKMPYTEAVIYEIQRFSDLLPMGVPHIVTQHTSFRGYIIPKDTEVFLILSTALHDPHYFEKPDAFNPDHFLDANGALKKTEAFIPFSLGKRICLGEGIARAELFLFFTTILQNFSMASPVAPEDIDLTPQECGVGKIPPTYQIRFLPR
Description: as §3, §4

CYP2C19 = CYP2C19 (Homo sapiens (Human), UniProt P33261); test: CYP inhibition assay, human liver microsomes; type: biochemical; conditions: omeprazole 0.5 μM
Chain of CYP2C19 (P33261 whole entry): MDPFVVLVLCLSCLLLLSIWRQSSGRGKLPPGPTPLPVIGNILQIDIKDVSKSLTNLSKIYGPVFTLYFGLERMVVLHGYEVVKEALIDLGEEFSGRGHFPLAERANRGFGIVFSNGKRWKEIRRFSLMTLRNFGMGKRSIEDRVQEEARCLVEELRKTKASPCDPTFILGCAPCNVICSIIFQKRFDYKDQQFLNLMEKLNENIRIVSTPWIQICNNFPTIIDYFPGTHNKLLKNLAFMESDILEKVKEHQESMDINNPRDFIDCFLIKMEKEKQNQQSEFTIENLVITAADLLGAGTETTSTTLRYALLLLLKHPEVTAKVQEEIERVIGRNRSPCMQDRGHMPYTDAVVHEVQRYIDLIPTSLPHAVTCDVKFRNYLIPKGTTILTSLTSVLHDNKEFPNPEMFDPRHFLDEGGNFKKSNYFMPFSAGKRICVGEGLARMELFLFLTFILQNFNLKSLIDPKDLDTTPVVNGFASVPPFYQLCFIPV
Description: as §3, §4

CYP3A = CYP3A (Homo sapiens, UniProt P08684); test: CYP inhibition assay, human liver microsomes; type: biochemical
Chain of CYP3A (P08684 2-503 limits assumed): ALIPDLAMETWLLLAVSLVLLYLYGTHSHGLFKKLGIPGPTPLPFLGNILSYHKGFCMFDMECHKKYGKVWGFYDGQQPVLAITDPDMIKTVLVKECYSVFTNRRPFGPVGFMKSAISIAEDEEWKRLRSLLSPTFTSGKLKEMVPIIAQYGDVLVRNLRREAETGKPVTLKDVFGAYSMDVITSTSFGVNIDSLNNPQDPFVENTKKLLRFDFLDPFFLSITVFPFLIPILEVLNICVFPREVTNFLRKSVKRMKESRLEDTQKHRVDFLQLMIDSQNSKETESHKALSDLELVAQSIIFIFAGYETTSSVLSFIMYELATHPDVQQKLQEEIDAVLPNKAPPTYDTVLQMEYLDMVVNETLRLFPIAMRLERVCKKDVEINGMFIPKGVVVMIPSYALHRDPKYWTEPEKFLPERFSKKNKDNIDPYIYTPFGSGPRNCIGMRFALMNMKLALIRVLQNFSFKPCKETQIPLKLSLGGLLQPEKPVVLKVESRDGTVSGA
Description: as §3, §4

CYP1A [8] = target: CYP1A (Homo sapiens (Human), UniProt P05177); test: CYP inhibition assay, human liver microsomes; type: biochemical; conditions: human liver microsomes, phenacetin 10 μM; read-out: IC50 (M) CYP1A
Chain of CYP1A (Homo sapiens (Human), UniProt P05177) (P05177 whole entry): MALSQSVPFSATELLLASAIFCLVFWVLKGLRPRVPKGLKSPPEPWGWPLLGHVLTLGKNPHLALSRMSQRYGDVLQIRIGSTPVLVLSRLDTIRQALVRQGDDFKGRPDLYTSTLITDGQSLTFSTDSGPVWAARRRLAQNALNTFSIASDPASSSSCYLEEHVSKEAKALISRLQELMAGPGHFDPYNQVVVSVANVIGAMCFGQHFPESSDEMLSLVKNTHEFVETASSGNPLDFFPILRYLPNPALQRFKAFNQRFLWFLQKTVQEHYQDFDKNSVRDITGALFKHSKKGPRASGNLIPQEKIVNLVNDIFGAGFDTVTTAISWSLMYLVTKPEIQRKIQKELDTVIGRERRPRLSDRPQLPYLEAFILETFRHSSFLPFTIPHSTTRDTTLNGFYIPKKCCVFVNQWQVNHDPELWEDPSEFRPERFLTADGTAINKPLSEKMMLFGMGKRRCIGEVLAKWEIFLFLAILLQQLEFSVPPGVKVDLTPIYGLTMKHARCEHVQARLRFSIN
Description: as §3, §4

CYP2D6 = CYP2D6 (Homo sapiens (Human), UniProt P10635); test: CYP inhibition assay, human liver microsomes; type: biochemical; conditions: dextromethorphan 5 μM
Chain of CYP2D6 (P10635 whole entry): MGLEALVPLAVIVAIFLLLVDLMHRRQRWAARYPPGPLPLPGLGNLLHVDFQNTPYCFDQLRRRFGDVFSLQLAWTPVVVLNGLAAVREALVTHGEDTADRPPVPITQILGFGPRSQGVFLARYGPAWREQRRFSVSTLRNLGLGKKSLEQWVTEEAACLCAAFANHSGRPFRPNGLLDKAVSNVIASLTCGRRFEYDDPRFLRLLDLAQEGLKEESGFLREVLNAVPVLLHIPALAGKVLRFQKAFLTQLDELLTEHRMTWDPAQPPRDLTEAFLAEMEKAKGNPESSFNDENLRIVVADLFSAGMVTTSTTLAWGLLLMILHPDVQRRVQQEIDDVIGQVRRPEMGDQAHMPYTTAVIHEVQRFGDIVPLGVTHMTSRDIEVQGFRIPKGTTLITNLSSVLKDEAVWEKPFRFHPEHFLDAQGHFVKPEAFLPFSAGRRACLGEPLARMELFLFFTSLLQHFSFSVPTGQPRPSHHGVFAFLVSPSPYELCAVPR
Description: as §3, §4

CYP2C9 = CYP2C9 (Homo sapiens (Human), UniProt P11712); test: CYP inhibition assay, human liver microsomes; type: biochemical; conditions: diclofenac 10 μM, reference sulfaphenazole
Chain of CYP2C9 (P11712 whole entry): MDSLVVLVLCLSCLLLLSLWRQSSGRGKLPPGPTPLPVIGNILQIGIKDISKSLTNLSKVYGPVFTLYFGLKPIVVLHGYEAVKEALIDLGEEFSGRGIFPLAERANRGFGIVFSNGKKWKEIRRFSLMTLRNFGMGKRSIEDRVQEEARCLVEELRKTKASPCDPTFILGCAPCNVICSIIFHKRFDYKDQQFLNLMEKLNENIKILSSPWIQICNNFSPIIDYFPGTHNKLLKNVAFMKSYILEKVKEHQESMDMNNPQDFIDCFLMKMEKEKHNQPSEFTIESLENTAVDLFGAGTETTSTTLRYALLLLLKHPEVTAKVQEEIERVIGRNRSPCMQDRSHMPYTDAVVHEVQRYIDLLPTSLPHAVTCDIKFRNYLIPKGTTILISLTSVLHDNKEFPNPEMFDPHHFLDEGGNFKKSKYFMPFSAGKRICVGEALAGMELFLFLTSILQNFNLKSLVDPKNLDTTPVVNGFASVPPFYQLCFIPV
Description: as §3, §4

[9] = tested on: zebrafish embryos treated with DOX (cardiomyopathy phenotype); test: Zebrafish doxorubicin cardiomyopathy model (rescue from phenotype); type: in vivo; conditions: Danio rerio; rescue from DOX (100 μM) cardiomyopathy phenotype, 40 hours post-treatment; read-out: EC50 is zebrafish
Description: Zebrafish embryos at 30 hours post-fertilization were treated with DOX at 100 μM in 96-well plates as previously described (Liu et al., 2014). Tested compounds were dissolved in DMSO and added at concentrations ranging from 3 nM to 10 μM (n=6 fish per dose; <1% DMSO v/v). The cardiomyopathy phenotype (decreased cardiac contraction, pericardial edema, and decreased tail blood flow) was assessed under light microscopy (5× magnification) at 40 hours post-treatment (hpt). Percent rescue from the cardiomyopathy phenotype was calculated for each concentration tested. Zebrafish were considered to be rescued from DOX-induced cardiomyopathy if all three features of the phenotype were absent. For the tested compounds, each dose-response experiment was repeated three times.
Dose-response curves were constructed using Prism (GraphPad).
Zebrafish were treated with DOX and assessed for the development of the cardiomyopathy phenotype (decreased cardiac contraction, pericardial edema, and decreased tail blood flow). Zebrafish were considered to be rescued if all three features of the cardiomyopathy phenotype were absent upon co-treatment with a tested compound. Referring to FIGS. 3-9, data are depicted as mean+/−standard error (n=6 fish per dose; each experiment performed in triplicate).

HL-1 cardiomyocytes = test: Cultured HL-1 cardiomyocyte model (DOX-induced apoptosis, viability); type: cell-based, mouse; conditions: doxorubicin 5 μM
Description: The cardiomyocyte cell line HL-1 derived from mouse atrial tumor was a gift from W. Claycomb. Cells were cultured as previously published (Claycomb et al., 1998) and treated with doxorubicin 5 μM with or without the tested compounds at a concentration up to 50 μM. Viability was assessed after 18 hours of using a CellTiter-Glo Luminescent assay from Promega. Each dose-response experiment was repeated three times.
Compounds were tested in HL-1 cultured cardiomyocytes to assess for efficacy in preventing DOX-induced apoptosis. Cell viability was assessed as described in the materials and methods section.

zebrafish embryos = test: Zebrafish toxicity in the absence of doxorubicin (TD50); conditions: absence of doxorubicin treatment
Description: Dose-response curves were constructed using Prism (GraphPad). Raw data representing percent rescue at each dose was log-transformed, and EC50 values were calculated using nonlinear regression analysis. The median toxic dose (TD50) was defined for each compound by assessing for pericardial edema, non-specific deformities, and death in the absence of doxorubicin treatment (data not shown). Concentrations at and above the TD50 (toxic dose) were excluded from dose-response curves.

Compound: COC(=O)c1csc(C(=O)c2c[nH]c3ccccc23)n1 [methyl 2-(1H-indole-3-carbonyl)-1,3-thiazole-4-carboxylate]
- effect on visnagin-mediated rescue from doxorubicin-induced cardiomyopathy [1]: abrogated

Compound: COc1cccc2c1C(=O)c1c(O)c3c(c(O)c1C2=O)C[C@@](O)(C(=O)CO)C[C@@H]3O[C@H]1C[C@H](N)[C@H](O)[C@H](C)O1 [DOX, doxorubicin]
- Protein Abundance (Normalized to DMSO) LOC100332237 (LOC100332237): 3.03*
- Protein Abundance (Normalized to DMSO) dhrs13l1 (dhrs13l1): 3.02*
- levels of CYP1 enzymes after doxorubicin treatment (CYP1 enzymes): robust induction
- levels of CYP1 enzymes after doxorubicin treatment (CYP1 enzymes; listed as doxorubicin): significant upregulation; also recorded: significantly increased
- Protein Abundance (Normalized to DMSO) cyp1c1 (cyp1c1): 7.91*
- Protein Abundance (Normalized to DMSO) cyp1a (CYP1A [2]): 9.52*
- Protein Abundance (Normalized to DMSO) cyp1b1 (cyp1b1): 6.26*
- cardiac annexin uptake, DOX only group ([3]; DOX 15 mg/kg + carrier vs saline control): increased significantly
- Protein Abundance (Normalized to DMSO) thbs1b (thbs1b): 2.29*
- Protein Abundance (Normalized to DMSO) sqstm1 (sqstm1): 2.78*
- levels of myosin heavy chain B (MYHB) [4]: decreased
- levels of C-reactive protein 3 (CRP3) [5]: increased
- patients with dose-dependent cardiotoxicity [6]: up to 9%
- Protein Abundance (Normalized to DMSO) gstp2 (gstp2): 2.32*
- Protein Abundance (Normalized to DMSO) rad9a (rad9a): 2.92*
- Protein Abundance (Normalized to DMSO) slc2a1a (slc2a1a): 1.19

Compound: CC(C)(C)OC(=O)NCCCOc1c2ccoc2cc2oc(=O)ccc12 [Example 2, tert-butyl (3-((7-oxo-7H-furo[3,2-g]chromen-4-yl)oxy)propyl)carbamate]
- effect on DOX-induced increase of CYP1 enzyme levels (CYP1 enzymes; co-treatment with doxorubicin): completely abolished
- induction of CYP1A by DOX, Western blot (CYP1A [7]): mitigated induction of CYP1A
- Mean % Inhibition CYP2C8 (CYP2C8): 7.1%
- IC50 (CYP2B6): 88 µM
- Mean % Inhibition CYP2B6 (CYP2B6; reference clopidogrel): 67.2%
- IC50 (CYP2C19): 12 µM
- Mean % Inhibition CYP2C19 (CYP2C19; reference oxybutynin): 57.0%
- IC50 (CYP3A; probe testosterone 50 μM): 9.3 µM
- Mean % Inhibition CYP3A (CYP3A; testosterone 50 μM, reference ketoconazole): 62.7%
- IC50 (CYP1A [8]): 1.6e-06 M
- IC50 (CYP2D6): 2 µM
- Mean % Inhibition CYP2D6 (CYP2D6; reference quinidine): 84.4%
- Mean % Inhibition CYP2C9 (CYP2C9): 2.4%
- EC50 [9]: 0.007 µM
- cardiac apoptosis / Annexin (Anx-750) uptake ([3]; DOX 15 mg/kg i.p., doses of 0.1 mg/kg, 1 mg/kg and 2 mg/kg i.p., 24 hours): significant reduction in apoptosis; also recorded: reduced significantly; also recorded: significant cardioprotective effect
- Annexin-Vivo fluorescence in the mouse heart / cardioprotection ([3]; DOX 15 mg/kg, 0.1 mg/kg i.p.): significantly reduced; also recorded: cardioprotective
- ex vivo Anx fluorescence in heart ([3]; DOX 15 mg/kg, dose of 2 mg/kg): marked reduction
- potency relative to visnagin in reducing DOX-induced cardiomyocyte apoptosis in mice ([3]; compared to visnagin): 250 fold
- EC50 (HL-1 cardiomyocytes; Mus musculus, HL-1, viability after 18 hours, CellTiter-Glo, read-out: EC50 in HL-1 Cells): > 50 µM
- efficacy in HL-1 cell culture model (HL-1 cardiomyocytes; doses up to 50 μM): ineffective
- toxic dose TD50 in the zebrafish model (zebrafish embryos): > 10 µM
